Experiments:
Format in all cases: cell-based
[1] = tested on: HTT mRNA, alternative junction (AJ); experiment: Splicing RT-qPCR assay, HTT alternative junction (AJ) mRNA increase; conditions: A673 or K562 cells, 24 hours compound treatment, 50% response in AJ increase
Procedure: (§1) Compounds described herein were used to modulate RNA transcript abundance in cells. The expression of a target mRNA was measured by detecting the formation of an exon-exon junction in the canonical transcript (CJ). A compound mediated exon-inclusion event was detected by observing an increase in formation of a new junction with an alternative exon (AJ). Real-time qPCR assays were used to detect these splicing switches and interrogate the potency of various compounds towards different target genes. A high-throughput real time quantitative PCR (RT-qPCR) assay was developed to measure these two isoforms of the mRNA (CJ and AJ) for an exemplary gene, HTT, together with a control housekeeping gene, GAPDH or GUSB or PPIA, used for normalization. Briefly, the A673 or K562 cell line was treated with various compounds described herein (e.g., compounds of Formula (I)). After treatment, the levels of the HTT mRNA targets were determined from each sample of cell lysate by cDNA synthesis followed by qPCR.
(§2) • Cells-to-CT 1-step kit: ThermoFisher A25602, Cells-to-CT lysis reagent: ThermoFisher 4391851C, TagMan™ Fast Virus 1-Step Master Mix: ThermoFisher 4444436 • GAPDH: VIC-PL, ThermoFisher 4326317E (Assay: Hs99999905 m1)—used for K562/suspension cell lines • GUSB: VIC-PL, ThermoFisher 4326320E (Assay: Hs99999908 m1)—used for K562/suspension cell lines • PPIA: VIC-PL, ThermoFisher 4326316E (Assay: Hs99999904 m1)—used for A673/adherent cell lines
(§3) The A673 cell line was cultured in DMEM with 10% FBS. Cells were diluted with full growth media and plated in a 96-well plate (15,000 cells in 100 ul media per well). The plate was incubated at 37° C. with 5% CO2 for 24 hours to allow cells to adhere. An 11-point 3-fold serial dilution of the compounds was made in DMSO then diluted in media in an intermediate plate. Compounds were transferred from the intermediate plate to the cell plate with the top dose at a final concentration of 10 uM in the well. Final DMSO concentration was kept at or below 0.25%. The cell plate was returned to the incubator at 37° C. with 5% CO2 for an additional 24 hours.
(§4) The K562 cell line was cultured in IMDM with 10% FBS. For K562, cells were diluted with full growth media and plated in either a 96-well plate (50,000 cells in 50 uL media per well) or a 384-well plate (8,000-40,000 cells in 45 uL media per well). An 11-point 3-fold serial dilution of the compounds were made in DMSO then diluted in media in an intermediate plate. Compound was transferred from the intermediate plate to the cell plate with the top dose at a final concentration of 10 uM in the well. Final DMSO concentration was kept at or below 0.25%. Final volume was 100 uL for 96-well plate and 50 uL for 384-well plate. The cell plate was then placed in an incubator at 37° C. with 5% CO2 for 24 hours.
(§5) The cells were then gently washed with 50 uL-100 uL cold PBS before proceeding to addition of lysis buffer. 30 uL-50 uL of room temperature lysis buffer with DNAse I (and optionally RNAsin) was added to each well. Cells were shaken/mixed thoroughly at room temperature for 5-10 minutes for lysis to take place and then 3 uL-5 uL of room temperature stop solution was added and wells were shaken/mixed again. After 2-5 minutes, the cell lysate plate was transferred to ice for RT-qPCR reaction setup. The lysates could also be frozen at ˜80° C. for later use.
(§6) In some cases, a direct lysis buffer was used. An appropriate volume of 3×lysis buffer (10 mM Tris, 150 mM NaCl, 1.5%-2.5% Igepal and 0.1-1 U/uL RNAsin, pH 7.4) was directly added to either K562 or A673 cells in media and mixed by pipetting 3 times. The plates were then incubated at room temperature with shaking/rocking for 20-50 minutes to allow for lysis to take place. After this time, the cell lysate plate was transferred to ice to set up for the RT-qPCR reactions. The lysates could also be frozen at −80° C. for later use. […]

[2] = tested on: HTT mRNA, canonical junction (CJ); experiment: Splicing RT-qPCR assay, HTT canonical junction (CJ) mRNA decrease; conditions: A673 or K562 cells, 24 hours compound treatment, 50% response in CJ decrease
Procedure: as §1, §2, §3, §4, §5, §6

HTT CJ mRNA transcript = experiment: Gene panel canonical junction qPCR assay, HTT; conditions: 50% response in CJ decrease, read-out: HTT IC50 (decrease in CJ mRNA levels)
Procedure: as §1, §3, §4
(§7) The data analysis was performed by first determining the ΔCt vs the housekeeper gene. This ΔCt was then normalized against the DMSO control (ΔΔCt) and converted to RQ (relative quantification) using the 2^(−ΔΔCt) equation. The RQ were then converted to a percentage response by arbitrarily setting an assay window of 3.5 ΔCt for HTT-CJ and an assay window of 9 ΔCt for HTT-AJ. […] The percentage response was then fitted to the 4 parametric logistic equation to evaluate the concentration dependence of compound treatment. The increase in AJ mRNA is reported as AC50 (compound concentration having 50% response in AJ increase) while the decrease in CJ mRNA levels is reported as IC50 (compound concentration having 50% response in CJ decrease).
(§8) Additional studies were carried out for a larger panel of genes using the protocol provided above. The junction between flanking upstream and downstream exons was used to design canonical junction qPCR assays. At least one of the forward primer, reverse primer or the CY5-labeled 5′ nuclease probe (with 3′ quencher such as ZEN/Iowa Black FQ) was designed to overlap with the exon junction to capture the CJ mRNA transcript. BLAST was used to confirm the specificity of the probeset and parameters such as melting temperature, GC content, amplicon size, and primer dimer formation are considered during their design. Data for the decrease in CJ mRNA levels for three exemplary genes (HTT, SMN2, and Target C) analyzed in this panel are reported as IC50 (compound concentration having 50% response in CJ decrease).

SMN2 CJ mRNA transcript = experiment: Gene panel canonical junction qPCR assay, SMN2; conditions: 50% response in CJ decrease, read-out: SMN2 IC50 (decrease in CJ mRNA levels)
Procedure: as §1, §3, §4, §7, §8

[3] = tested on: Target C CJ mRNA transcript; experiment: Gene panel canonical junction qPCR assay, Target C; conditions: 50% response in CJ decrease, read-out: Target C IC50 (decrease in CJ mRNA levels)
Procedure: as §1, §3, §4, §7, §8

Row | Structure (SMILES) | IC50 (HTT CJ mRNA transcript) [µM] | IC50 (SMN2 CJ mRNA transcript) [µM] | IC50 [3] [µM] | AC50 [1] [µM] | AC50 [2] [µM]
1 | Cc1cc(-c2nc3c(=O)n(C4CCN(C)CC4)cnc3s2)cc2cn(C)nc12 [Compound 179, 2-(2,7-dimethyl-2H-indazol-5-yl)-6-(1-methylpiperidin-4-yl)thiazolo[5,4-d]pyrimidin-7(6H)-one] | > 10 | 0.1 to 1 | – | > 10 | > 10
2 | Cn1cc2cc(-n3cnc4sc(N5CCN(Cc6ccc(F)cc6)CC5)nc4c3=O)ccc2n1 [Compound 185, 2-(4-(4-fluorobenzyl)piperazin-1-yl)-6-(2-methyl-2H-indazol-5-yl)thiazolo[5,4-d]pyrimidin-7(6H)-one] | > 10 | > 10 | – | > 10 | > 10
3 | Cc1cn2cc(-c3nc4c(=O)n(C5CCN(C)CC5)cnc4s3)cc(F)c2n1 [Compound 186, 2-(8-fluoro-2-methylimidazo[1,2-a]pyridin-6-yl)-6-(1-methylpiperidin-4-yl)thiazolo[5,4-d]pyrimidin-7(6H)-one] | 1 to 10 | 1 to 10 | – | 1 to 10 | 1 to 10
4 | Cc1cc(-c2nc3c(=O)n(C4CC(C)(C)N(C=O)C(C)(C)C4)cnc3s2)cc2cn(C)nc12 [Compound 187, 4-(2-(2,7-dimethyl-2H-indazol-5-yl)-7-oxothiazolo[5,4-d]pyrimidin-6(7H)-yl)-2,2,6,6-tetramethylpiperidine-1-carbaldehyde] | 1 to 10 | > 10 | – | > 10 | 1 to 10
5 | CN1CC=C(c2nc3c(=O)n(-c4ccc5nn(C)cc5c4)cnc3s2)CC1 [Compound 188, 2-(1-methyl-1,2,3,6-tetrahydropyridin-4-yl)-6-(2-methyl-2H-indazol-5-yl)thiazolo[5,4-d]pyrimidin-7(6H)-one] | > 10 | > 10 | 1 to 10 | > 10 | > 10
6 | CN1CCC(Nc2nc3c(=O)n(-c4ccc5nn(C)cc5c4)cnc3s2)CC1 [Compound 189, 6-(2-methyl-2H-indazol-5-yl)-2-((1-methylpiperidin-4-yl)amino)thiazolo[5,4-d]pyrimidin-7(6H)-one] | > 10 | > 10 | > 10 | > 10 | > 10
7 | CN1CCC(N(C)c2nc3c(=O)n(-c4ccc5nn(C)cc5c4)cnc3s2)CC1 [Compound 190, 2-(methyl(1-methylpiperidin-4-yl)amino)-6-(2-methyl-2H-indazol-5-yl)thiazolo[5,4-d]pyrimidin-7(6H)-one] | > 10 | > 10 | > 10 | > 10 | > 10
8 | Cc1cn2cc(-n3cnc4sc(N5CCN(C)CC5)nc4c3=O)cc(F)c2n1 [Compound 221, 6-(8-fluoro-2-methylimidazo[1,2-a]pyridin-6-yl)-2-(4-methylpiperazin-1-yl)thiazolo[5,4-d]pyrimidin-7(6H)-one] | > 10 | > 10 | > 10 | > 10 | > 10
9 | Cc1cn2cc(-n3cnc4sc(N5CCNCC5)nc4c3=O)cc(C(F)(F)F)c2n1 [Compound 223, 6-(2-methyl-8-(trifluoromethyl)imidazo[1,2-a]pyridin-6-yl)-2-(piperazin-1-yl)thiazolo[5,4-d]pyrimidin-7(6H)-one] | > 10 | > 10 | > 10 | > 10 | > 10
10 | Cc1cn2cc(-n3cnc4sc(N5CCN(C)CC5)nc4c3=O)cc(C(F)(F)F)c2n1 [Compound 224, 6-(2-methyl-8-(trifluoromethyl)imidazo[1,2-a]pyridin-6-yl)-2-(4-methylpiperazin-1-yl)thiazolo[5,4-d]pyrimidin-7(6H)-one] | – | – | – | > 10 | > 10

The next lines start with results.

Row | IC50 (HTT CJ mRNA transcript) [µM] | IC50 (SMN2 CJ mRNA transcript) [µM] | IC50 [3] [µM] | Structure (SMILES) | AC50 [1] [µM] | AC50 [2] [µM]
11 | > 10 | > 10 | > 10 | CN1CCC(c2nc3c(=O)n(-c4ccc5nn(C)cc5c4)cnc3s2)CC1 [Compound 176, 6-(2-methyl-2H-indazol-5-yl)-2-(1-methylpiperidin-4-yl)thiazolo[5,4-d]pyrimidin-7(6H)-one] | > 10 | > 10
12 | > 10 | > 10 | – | CN1CCN(c2nc3c(=O)n(-c4ccc5nn(C)cc5c4)cnc3s2)CC1 [Compound 181, 6-(2-methyl-2H-indazol-5-yl)-2-(4-methylpiperazin-1-yl)thiazolo[5,4-d]pyrimidin-7(6H)-one] | > 10 | > 10
13 | > 10 | > 10 | > 10 | Cn1cc2cc(-n3cnc4sc(N5CCNCC5)nc4c3=O)ccc2n1 [Compound 219, 6-(2-methyl-2H-indazol-5-yl)-2-(piperazin-1-yl)thiazolo[5,4-d]pyrimidin-7(6H)-one] | > 10 | > 10
14 | > 10 | > 10 | 1 to 10 | Cc1cn2cc(-n3cnc4sc(N5CCNCC5)nc4c3=O)cc(F)c2n1 [Compound 220, 6-(8-fluoro-2-methylimidazo[1,2-a]pyridin-6-yl)-2-(piperazin-1-yl)thiazolo[5,4-d]pyrimidin-7(6H)-one] | > 10 | > 10
